According to ChEMBL document CHEMBL4342451, “α-Glucosidase Inhibitory Isomeric Corniculatolides from the Stems of the Indian Mangrove Plant, Xylocarpus granatum” (J Nat Prod, 2020):
Activity calls are given as the source filed them. No cut-off for these calls is given here.

Columns and labels:
[1] = tested on: DU-145; test: Cytotoxicity against human DU145 cells assessed as reduction in cell viability at 1 to 100 uM incubated for 24 to 48 hrs by SRB assay; assay type: functional, cell-based
[2] = tested on: MIA PaCa-2; test: Cytotoxicity against human MIAPaCa2 cells assessed as reduction in cell viability at 1 to 100 uM incubated for 24 to 48 hrs by SRB assay; assay type: functional, cell-based
[3] = Inhibition of Saccharomyces cerevisiae alpha-glucosidase assessed as decrease in release of p-nitrophenol using pNPG as substrate preincubated for 15 min followed by substrate addition and measured after 5 mins by spectrophotometric method
[4] = tested on: MCF7; test: Cytotoxicity against human MCF7 cells assessed as reduction in cell viability at 1 to 100 uM incubated for 24 to 48 hrs by SRB assay; assay type: functional, cell-based
[5] = tested on: HCT-116; test: Cytotoxicity against human HCT116 cells assessed as reduction in cell viability at 1 to 100 uM incubated for 24 to 48 hrs by SRB assay; assay type: functional, cell-based

IC50 [3] [µM]	SMILES	Activity [1]	Activity [2]	Activity [4]	Activity [5]
> 200	O=C1CCc2ccc(cc2)Oc2cc(ccc2O)CCCO1 [ISOCORNICULATOLIDE A]	inactive	inactive	inactive	inactive
72.3	COc1cc2cc(c1OC)Oc1ccc(cc1)CCCOC(=O)CC2	inactive	inactive	inactive	inactive
> 200	COc1c(O)cc2cc1Oc1ccc(cc1)CCCOC(=O)CC2	inactive	inactive	inactive	inactive

The remaining lines, values behind:

SMILES	IC50 [3] [µM]	Activity [1]	Activity [2]	Activity [4]	Activity [5]
O=C1CCc2ccc(O)c(c2)Oc2ccc(cc2)CCCO1 [CORNICULATOLIDE A]	187	inactive	inactive	inactive	inactive
COc1ccc2cc1Oc1ccc(cc1)CCCOC(=O)CC2	65.4	inactive	inactive	inactive	inactive
O=C1CCc2cc(O)c(O)c(c2)Oc2ccc(cc2)CCCO1	24.8	inactive	inactive	inactive	inactive
C[C@H]1O[C@H](O[C@H]2[C@H](O)[C@@H](O)[C@@H](O[C@H]3[C@H](O)[C@@H](O)C(O)O[C@@H]3CO)O[C@@H]2CO)[C@H](O)[C@@H](O)[C@@H]1N[C@H]1C=C(CO)[C@@H](O)[C@H](O)[C@H]1O (stereo partly specified) [ACARBOSE]	12.2				
COc1cc2cc(c1OC)Oc1ccc(cc1)CCC(=O)OCCC2	134	inactive	inactive	inactive	inactive
